Measurements taken from US20250241862A1, “EXOSOMAL COMPOSITIONS INCLUDING ANESTHETICS” (THE BOARD OF TRUSTEES OF THE UNIVERSITY OF ALABAMA, priority 2024, published 2025).
Where a name gives a salt, the structure may show the parent alone.

How the values were obtained:
[1] = test system: sciatic nerve; test: Sciatic nerve histology (toluidine blue) for neurotoxicity; type: in vivo, rat
Description: For nerve injury histology, samples underwent Epon-embedding and fixation using Karnovsky's KII Solution, which comprises 2.5% glutaraldehyde, 2.0% paraformaldehyde, and 0.025% calcium chloride in a 0.1 M sodium cacodylate buffer with a pH of 7.4. Subsequently, samples were post-fixed using osmium tetroxide, stained with uranyl acetate, and then dehydrated through a series of ethanol solutions. This was followed by infiltration with mixtures of propylene oxide and Epon. Sections, with a thickness of 0.5 μm, were then stained using toluidine blue, facilitating high-resolution light microscopy examination.
Epon-embedded sections of the sciatic nerve were stained with toluidine blue. […] Furthermore, when 2.5 mg free BUP was injected, 3 out of 4 tissues presented significant nerve degeneration, which is determined by the density decrease of nerve fibers within the nerve section (FIG. 6b).

[2] = test system: muscle at the injection site; test: Muscle histology (H&E) inflammation and myotoxicity scoring; type: in vivo, rat
Description: Following euthanasia, the sciatic nerve and adjacent muscle tissues were meticulously extracted. Muscle specimens underwent processing to yield slides stained with hematoxylin and eosin. A macroscopic dissection score was assigned based on the following criteria: 0=tissue planes obvious and easily separated; 1=tissue planes obvious but separated with some difficulty; 2=tissue planes adherent and separated with some difficulty; 3=tissue planes completely obliterated, could not separate surrounding tissues from nerve without cutting through them. Muscle samples underwent evaluation for inflammation (on a scale of 0-4) and myotoxicity (on a scale of 0-6). The inflammation score was a subjective measure of its severity. The myotoxicity score was based on two hallmark features of local anesthetic-induced myotoxicity: nuclear internalization and regeneration. […] Regeneration manifests as contracted myocytes with basophilic cytoplasm. The scoring was as follows: 0=normal; 1=perifascicular internalization; 2=deep internalization (>5 cell layers), 3=perifascicular regeneration, 4=deep regeneration, 5=hemifascicular regeneration, 6=holofascicular regeneration.
The sciatic nerve and surrounding tissues were harvested, sectioned, and stained for histologic assessment. Muscle tissues were processed for hematoxylin-eosin (H&E) staining. The myotoxicity and inflammation were quantified using a previously reported scoring system (Table 1, Table 2).

[3] = test system: sciatic nerve; test: Rat sciatic nerve block, neurobehavioral test (hot plate thermal latency, weight bearing); type: in vivo; details: for nerve block at injected site (observation): single sciatic nerve injection 0.3 mL
Description: Adult male Sprague-Dawley rats (Charles River Laboratories, Wilmington, MA) weighing 250-350 g were housed in groups, in a 6 am-6 pm light-dark cycle. Animals were cared for in accordance with protocols approved by the Institutional Animal Care and Use Committee of the University of Alabama (Protocol ID: 19-11-2992), and the Guide for the Care and Use of Laboratory Animals of the US National Research Council.
Nerve block injections were meticulously executed utilizing a 23-gauge needle, with rats being anesthetized under a combination of isoflurane and oxygen. […] Additionally, injections of free BUP were given at doses of 0.75 mg and 1.5 mg. A control group received an injection of 50 μg of empty exosomes. The injection technique involved positioning the needle posteromedially to the greater trochanter and directing it anteromedially. Upon making contact with the bone, the prepared solution was administered.
Subsequently, the rats underwent neurobehavioral test to determine the duration of functional deficits (i.e., sensory and motor nerve blockade) in both hind paws. The duration of deficits on the injected side (left, ipsilateral) reflected the duration of nerve block. Any deficits observed on the uninjected side (right, contralateral) were indicative of the systemic BUP distribution.
The efficacy of the nerve block was assessed at specified intervals using established methodologies. Sequentially, the left and then the right hind paws of the rats were subjected to a 56° C. hot plate (model 39D Hot Plate Analgesia meter; IITC Inc., Woodland Hills, CA). The duration until the paw was withdrawn, termed thermal latency, was meticulously recorded. […] Thermal latency serves as an indicator of analgesic potency. […] For a systemic effect baseline, latency was also gauged in the non-injected leg. The duration of the thermal nociceptive block was determined as the time taken for the thermal latency to revert from an elevated value to a baseline of 7 seconds. In adult rats, this 7-second threshold represents the median between the maximum block and the typical thermal latency, which is roughly 2 seconds, with the upper limit being 12 seconds. Motor function was evaluated by suspending the animal over a balance and recording the maximum weight the animal could bear. The duration of motor blockade was determined as the period until weight-bearing capacity returned to half of its normal level from the point of maximal block. For each rat, the halfway point was calculated as [(highest weight borne by either leg)−(lowest weight borne by the blocked leg)]/2+the lowest weight borne by the blocked leg.

[4] = In vitro release of BUP by dialysis; type: physicochemical; details: dialysis 8-10 kD, 1×PBS pH 7.4, 37° C.; free BUP at 0.5% (w/v) and saturated concentrations
Protocol: To assess the release kinetics of BUP from the BUP@EXO, a dialysis method was employed. Specifically, 1 mL of BUP@EXO, containing 5 mg BUP, was introduced into a Spectra/Por Float-A-Lyzer G2 dialysis bag with a molecular weight cutoff ranging from 8-10 kD (Spectrum Laboratories, Ranchodominguez, CA). This bag was then immersed in 20 mL of phosphate-buffered saline (PBS) with a pH of 7.4. The setup was maintained at 37° C. and subjected to continuous 200 rpm shaking. At specified time points, the dialysis bag was relocated to fresh 1×PBS to ensure a consistent concentration gradient. The concentration of BUP in the dialysate was ascertained by measuring its absorbance at 272 nm and referencing it against a pre-established standard curve. We collected the washout solutions (filtrate) in the lower chambers of centrifugal filters. Subsequently, these solutions underwent UV-Vis spectroscopy to determine the BUP concentration. The encapsulation efficiency is thereby calculated by
We conducted in-depth in vitro drug release kinetic analysis at 37° C. for our BUP@EXO formulations. 1 mL of BUP@EXO in 1×PBS, containing 5 mg BUP, was introduced into a dialysis bag with a molecular weight cutoff ranging from 8-10 kD. The dialysis bag was then immersed in 20 mL of 1×PBS with a pH of 7.4. The setup was maintained at 37° C. and subjected to continuous shaking of 200 rpm. […]

[5] = test system: Creatine Kinase (CK-total, CK-MB) activity in serum; test: Serum creatine kinase activity (CK-total, CK-MB), cardiotoxicity; type: in vivo, rat; details: 48 hours after injection
Protocol: In another experiment, rats were euthanized at the 48-hour mark. Blood samples were meticulously collected through two methods: a cardiac puncture, which involves drawing blood directly from the heart, and a separate collection from the femoral artery. Once collected, the blood samples were subjected to centrifugation, a process that separates the serum from other blood components. The isolated serum was then analyzed for creatine kinase activity using a colorimetric assay kit for creatine kinase activity. The intensity was quantified using a plate-reader, an instrument that measures absorbance levels.
It is important to recognize that the side effects of BUP and other local anesthetics go beyond just localized tissue reactions. A major concern with administering BUP is its potential harmful cardiotoxic effects. This can be particularly severe in certain instances, such as arrhythmias and cardiac asystole. Cardiotoxicity can be observed through increased activity of Creatine Kinase(CK), an family of enzymes that is released into the blood in response to lesions in contractile fibers, serve as biochemical markers for muscle damage, including myocardial injury. Elevated activity levels of CK, especially its cardiomyocyte isoform—Creatine Kinase-Myocardial Band (CK-MB), can be a warning sign for serious outcomes such as cardiac arrhythmias, heart failure, and other cardiovascular complications.
Two types of samples were obtained: from the femoral artery and cardiac puncture. These samples were analyzed to evaluate the activity in serum of total CK (CK-total) and its cardiomyocyte isoform (CK-MB).

[6] = osmotic shock method; cited from earlier work

For CCCCN1CCCCC1C(=O)Nc1c(C)cccc1C (stereo not shown) [free BUP, Bupivacaine Hydrochloride], the “tissues with signs of neurotoxicity” value ([1]; 1.5 mg, 48 hours) was 1 out of 4, the “tissues with significant nerve degeneration” value ([1]; 2.5 mg) was 3 out of 4 and the “myotoxicity score (scale 0-6)” value ([2]; 1.5 mg, 4 days, 1 of 4 rats) was 2. For the same compound, the “inflammation score (out of 4)” value ([2]; 2.5 mg, 48 hours) was “up to 3”, the “myotoxicity score (out of 6)” value ([2]; 2.5 mg, 48 hours) was “up to 3” and the “success rate of nerve blockade” value ([3]; 0.75 mg BUP equivalent) was 0%. For the same compound, the “contralateral nerve blockade (systemic distribution)” value ([3]; 0.75 mg BUP equivalent, uninjected side) was “no contralateral nerve blockade”, the “nerve block at injected site (observation)” value ([3]; 0.75 mg BUP in PBS) was “neither a detectable nerve block nor toxicity” and the “duration of motor blockade” value ([3]; 1.5 mg BUP equivalent) was 0.458 ± 0.176 h. The “duration of sensory nerve blockade” value ([3]; 1.5 mg BUP equivalent) was 1.833 ± 0.250 h, the “contralateral nerve blockade (systemic distribution)” value ([3]; 1.5 mg BUP equivalent, uninjected side) was “no contralateral nerve blockade” and the “nerve block at injected site (observation)” value ([3]; 1.5 mg BUP in PBS) was “successfully induced nerve block at the injected sites in all animals”. The occurrence of drowsiness ([3]; 2.5 mg BUP) was 3 out of 4 animals, the “duration of motor blockade” value ([3]; 2.5 mg BUP equivalent) was 2.12 ± 0.54 h and the “duration of sensory nerve blockade” value ([3]; 2.5 mg BUP equivalent) was 2.75 ± 0.43 h. The “contralateral sensory nerve blockade (systemic distribution)” value ([3]; 2.5 mg BUP equivalent, uninjected side) was 3 out of 4 animals, the contralateral thermal latency ([3]; 2.5 mg BUP, uninjected side, 56° C. hot plate) was about 7 s and the “cumulative release within initial 5-hour period” value [4] was “near-complete cumulative release”. For the same compound, the “Creatine Kinase activity profiles (CK-total, CK-MB) vs blank control” value ([5]; 0.75 mg) was “did not result in significant alteration”, the “CK activity vs blank control” value ([5]; 1.5 mg) was “considerable elevation in CK activity” and the “CK activity vs blank control” value ([5]; 2.5 mg) was “considerable elevation in CK activity”.

For CC(=O)CCCCn1c(=O)c2c(ncn2C)n(C)c1=O [pentoxifylline], the “encapsulation efficiency (drug per protein-equivalent exosomes)” value [6] is given as 0.85 μg of drug per μg of protein-equivalent exosomes.
